Targets include CDK5 (Homo sapiens, UniProt Q00535); CLK2 (Homo sapiens, UniProt P49760); EPHB6 (Homo sapiens, UniProt O15197); FES (Homo sapiens, UniProt P07332); FYN (Homo sapiens, UniProt P06241); GAK (Homo sapiens, UniProt O14976); GSK3B (Homo sapiens, UniProt P49841); HIPK1 (Homo sapiens, UniProt Q86Z02); LIMK2 (Homo sapiens, UniProt P53671); MAP2K6 (Homo sapiens, UniProt P52564); MAP3K3 (Homo sapiens, UniProt Q99759); MAP3K5 (Homo sapiens, UniProt Q99683); MAP4K5 (Homo sapiens, UniProt Q9Y4K4); MAPK8 (Homo sapiens, UniProt P45983); MASTL (Homo sapiens, UniProt Q96GX5); PLK1 (Homo sapiens, UniProt P53350); PRKAA1 (Homo sapiens, UniProt Q13131); PRKD3 (Homo sapiens, UniProt O94806); PRKDC (Homo sapiens, UniProt P78527); RIPK2 (Homo sapiens, UniProt O43353); SRC (Homo sapiens, UniProt P12931).

Holding throughout (test): biochemical
Holding throughout (parameters): species or system HEK293/K-562/placenta mixed human extract; Kinobeads chemoproteomic competition binding, quantified by TMT LC-MS/MS, dose response up to 20 uM

SMILES strings stand for the structures. Bounds are passed on as bounds.

One compound from article PMC6407917, “Identification of GSK3186899/DDD853651 as a Preclinical Development Candidate for the Treatment of Visceral Leishmaniasis” (Journal of Medicinal Chemistry, 2018) can be followed below.

Sequence of SRC (P12931 whole entry): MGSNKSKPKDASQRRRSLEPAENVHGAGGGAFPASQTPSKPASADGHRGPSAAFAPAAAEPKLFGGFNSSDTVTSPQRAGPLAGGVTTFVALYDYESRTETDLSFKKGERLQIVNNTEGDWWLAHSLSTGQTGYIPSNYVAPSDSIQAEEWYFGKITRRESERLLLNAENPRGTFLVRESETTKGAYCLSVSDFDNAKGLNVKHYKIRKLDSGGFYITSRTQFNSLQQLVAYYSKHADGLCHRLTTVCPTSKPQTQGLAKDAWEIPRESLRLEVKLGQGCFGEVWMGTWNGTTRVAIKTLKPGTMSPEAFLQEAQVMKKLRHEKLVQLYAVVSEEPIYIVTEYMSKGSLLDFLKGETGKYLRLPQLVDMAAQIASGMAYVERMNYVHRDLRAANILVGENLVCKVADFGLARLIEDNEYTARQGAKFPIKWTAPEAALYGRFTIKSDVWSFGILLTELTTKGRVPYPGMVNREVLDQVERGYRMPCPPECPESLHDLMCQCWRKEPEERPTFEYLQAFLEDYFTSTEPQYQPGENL
Sequence of FES (P07332 whole entry): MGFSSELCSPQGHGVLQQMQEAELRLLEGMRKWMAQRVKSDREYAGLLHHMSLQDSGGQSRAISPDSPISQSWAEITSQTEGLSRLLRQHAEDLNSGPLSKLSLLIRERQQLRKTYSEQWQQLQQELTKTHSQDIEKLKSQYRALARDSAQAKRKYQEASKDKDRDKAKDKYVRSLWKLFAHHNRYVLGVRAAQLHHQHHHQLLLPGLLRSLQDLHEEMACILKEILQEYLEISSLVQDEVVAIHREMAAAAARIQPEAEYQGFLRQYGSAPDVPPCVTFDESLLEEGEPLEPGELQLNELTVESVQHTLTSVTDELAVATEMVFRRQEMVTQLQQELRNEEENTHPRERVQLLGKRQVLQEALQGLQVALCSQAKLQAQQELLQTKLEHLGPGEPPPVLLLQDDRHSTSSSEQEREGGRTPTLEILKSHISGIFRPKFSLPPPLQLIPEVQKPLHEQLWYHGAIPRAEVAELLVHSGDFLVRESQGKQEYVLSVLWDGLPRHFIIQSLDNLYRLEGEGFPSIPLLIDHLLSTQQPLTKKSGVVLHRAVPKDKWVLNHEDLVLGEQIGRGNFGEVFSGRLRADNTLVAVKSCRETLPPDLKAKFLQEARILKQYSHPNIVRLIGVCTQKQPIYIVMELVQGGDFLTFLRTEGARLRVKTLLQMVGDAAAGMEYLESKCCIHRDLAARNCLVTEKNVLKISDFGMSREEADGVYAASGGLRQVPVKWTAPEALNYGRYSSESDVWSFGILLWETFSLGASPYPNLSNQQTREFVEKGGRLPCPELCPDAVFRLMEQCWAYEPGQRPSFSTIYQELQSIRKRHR
Sequence of RIPK2 (O43353 whole entry): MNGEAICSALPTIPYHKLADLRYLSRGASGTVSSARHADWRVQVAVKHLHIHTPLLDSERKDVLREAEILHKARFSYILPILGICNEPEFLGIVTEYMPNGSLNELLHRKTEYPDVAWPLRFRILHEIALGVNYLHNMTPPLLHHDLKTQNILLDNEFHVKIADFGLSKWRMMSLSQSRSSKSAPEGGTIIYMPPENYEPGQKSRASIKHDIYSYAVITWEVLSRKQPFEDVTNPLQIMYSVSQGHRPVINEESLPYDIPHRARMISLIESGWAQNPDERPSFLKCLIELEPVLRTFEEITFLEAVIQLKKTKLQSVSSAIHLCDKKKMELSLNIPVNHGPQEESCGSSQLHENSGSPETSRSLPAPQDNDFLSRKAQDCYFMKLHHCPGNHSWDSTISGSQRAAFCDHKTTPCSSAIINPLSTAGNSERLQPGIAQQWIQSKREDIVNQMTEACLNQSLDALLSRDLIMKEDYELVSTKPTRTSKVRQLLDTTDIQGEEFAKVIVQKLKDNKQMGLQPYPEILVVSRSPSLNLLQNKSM
Sequence of MAP4K5 (Q9Y4K4 whole entry): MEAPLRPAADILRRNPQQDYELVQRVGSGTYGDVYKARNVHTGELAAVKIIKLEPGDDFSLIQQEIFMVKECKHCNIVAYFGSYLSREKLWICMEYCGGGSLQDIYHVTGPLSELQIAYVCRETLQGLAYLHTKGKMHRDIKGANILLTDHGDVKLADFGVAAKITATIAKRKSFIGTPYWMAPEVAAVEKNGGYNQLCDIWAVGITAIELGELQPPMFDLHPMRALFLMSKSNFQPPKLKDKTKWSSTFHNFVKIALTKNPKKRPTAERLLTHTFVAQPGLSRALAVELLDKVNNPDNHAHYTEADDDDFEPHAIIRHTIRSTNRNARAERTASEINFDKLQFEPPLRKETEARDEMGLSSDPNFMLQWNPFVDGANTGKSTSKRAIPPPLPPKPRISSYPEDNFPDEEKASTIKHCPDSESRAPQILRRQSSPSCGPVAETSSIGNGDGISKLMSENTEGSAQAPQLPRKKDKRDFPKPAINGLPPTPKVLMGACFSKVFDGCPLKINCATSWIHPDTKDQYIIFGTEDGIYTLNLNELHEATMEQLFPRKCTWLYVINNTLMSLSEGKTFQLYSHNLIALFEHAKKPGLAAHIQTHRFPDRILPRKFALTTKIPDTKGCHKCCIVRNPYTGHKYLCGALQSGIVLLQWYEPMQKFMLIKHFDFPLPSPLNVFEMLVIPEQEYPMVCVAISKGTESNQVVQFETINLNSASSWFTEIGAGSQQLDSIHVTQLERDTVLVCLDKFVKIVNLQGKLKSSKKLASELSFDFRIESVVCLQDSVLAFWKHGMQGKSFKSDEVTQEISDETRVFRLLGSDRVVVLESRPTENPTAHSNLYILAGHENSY
Sequence of EPHB6 (O15197 whole entry): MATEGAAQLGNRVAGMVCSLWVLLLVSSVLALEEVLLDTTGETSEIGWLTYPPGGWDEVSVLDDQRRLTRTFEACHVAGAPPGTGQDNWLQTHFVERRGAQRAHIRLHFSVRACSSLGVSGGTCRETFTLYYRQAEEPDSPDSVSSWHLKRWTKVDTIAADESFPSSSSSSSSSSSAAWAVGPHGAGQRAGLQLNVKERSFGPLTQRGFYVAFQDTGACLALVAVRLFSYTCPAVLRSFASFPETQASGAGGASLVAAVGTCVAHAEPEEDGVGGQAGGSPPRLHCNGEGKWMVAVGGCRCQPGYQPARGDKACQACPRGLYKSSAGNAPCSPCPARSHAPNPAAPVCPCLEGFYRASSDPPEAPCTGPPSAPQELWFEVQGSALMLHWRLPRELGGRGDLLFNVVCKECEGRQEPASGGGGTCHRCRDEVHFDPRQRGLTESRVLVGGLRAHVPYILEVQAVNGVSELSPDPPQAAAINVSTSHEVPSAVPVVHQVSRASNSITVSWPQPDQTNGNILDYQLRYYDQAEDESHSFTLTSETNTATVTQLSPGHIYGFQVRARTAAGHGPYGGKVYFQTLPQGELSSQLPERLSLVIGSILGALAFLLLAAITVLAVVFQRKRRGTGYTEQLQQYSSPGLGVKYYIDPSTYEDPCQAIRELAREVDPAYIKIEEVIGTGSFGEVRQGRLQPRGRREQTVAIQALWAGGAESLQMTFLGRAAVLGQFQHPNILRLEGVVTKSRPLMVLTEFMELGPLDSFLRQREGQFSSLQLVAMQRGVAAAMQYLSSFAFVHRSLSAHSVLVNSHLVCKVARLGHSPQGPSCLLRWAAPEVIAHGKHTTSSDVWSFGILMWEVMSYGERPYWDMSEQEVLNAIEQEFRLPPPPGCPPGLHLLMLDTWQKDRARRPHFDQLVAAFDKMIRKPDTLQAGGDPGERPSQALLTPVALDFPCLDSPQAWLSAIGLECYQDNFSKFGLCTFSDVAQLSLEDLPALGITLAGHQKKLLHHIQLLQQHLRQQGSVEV
Sequence of MAPK8 (P45983 whole entry): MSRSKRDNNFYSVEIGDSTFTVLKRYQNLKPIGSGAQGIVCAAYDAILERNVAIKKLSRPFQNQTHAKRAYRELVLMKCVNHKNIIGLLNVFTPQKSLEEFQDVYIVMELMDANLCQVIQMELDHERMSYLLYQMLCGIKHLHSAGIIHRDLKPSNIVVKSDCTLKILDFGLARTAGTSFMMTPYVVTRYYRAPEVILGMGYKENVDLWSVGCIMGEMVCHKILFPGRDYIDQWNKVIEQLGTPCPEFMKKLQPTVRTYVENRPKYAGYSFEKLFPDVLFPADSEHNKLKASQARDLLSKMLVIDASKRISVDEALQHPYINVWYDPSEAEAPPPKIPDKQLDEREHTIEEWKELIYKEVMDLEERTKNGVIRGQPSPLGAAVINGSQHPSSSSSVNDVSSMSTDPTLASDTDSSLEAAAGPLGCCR
Sequence of MAP3K3 (Q99759 whole entry): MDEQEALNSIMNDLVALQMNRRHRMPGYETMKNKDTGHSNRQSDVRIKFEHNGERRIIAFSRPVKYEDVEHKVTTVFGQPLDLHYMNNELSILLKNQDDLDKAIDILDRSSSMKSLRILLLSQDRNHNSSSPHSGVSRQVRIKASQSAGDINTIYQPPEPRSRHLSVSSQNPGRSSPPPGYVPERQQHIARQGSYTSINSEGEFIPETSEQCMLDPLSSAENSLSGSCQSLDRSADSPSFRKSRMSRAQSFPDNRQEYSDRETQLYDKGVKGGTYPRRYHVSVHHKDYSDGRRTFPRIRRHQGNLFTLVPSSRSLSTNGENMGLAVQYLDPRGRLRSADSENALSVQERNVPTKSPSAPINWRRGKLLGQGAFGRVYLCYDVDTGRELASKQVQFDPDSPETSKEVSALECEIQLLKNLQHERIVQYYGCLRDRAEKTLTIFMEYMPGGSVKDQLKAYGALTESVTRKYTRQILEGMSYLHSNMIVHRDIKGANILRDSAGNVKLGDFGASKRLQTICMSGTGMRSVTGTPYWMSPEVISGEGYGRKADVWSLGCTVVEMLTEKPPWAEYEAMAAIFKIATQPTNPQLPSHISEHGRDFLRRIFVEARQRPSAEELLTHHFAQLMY

With `COc1nc(N[C@H]2CC[C@H](NS(=O)(=O)CC(C)C)CC2)nc2[nH]nc(N3CCOC[C@H]3C)c12` [compound 39, N-(trans-4-((4-Methoxy-3-((R)-3-methylmorpholino)-1H-pyrazolo[3,4-d]pyrimidin-6-yl)amino)cyclohexyl)-2-methylpropane-1-sulfonamide], the IC50 is 12 µM at CDK5; at least 20 µM on CLK2; 3.3 µM on EPHB6; at least 20 µM at FES; at least 20 µM on FYN; at least 20 µM on GAK. For the same compound, the 50% inhibitory concentration (IC50) on GSK3B, on HIPK1, at LIMK2, at MAP2K6, on MAP3K3 and at MAP3K5 was at least 20 µM in each case. In addition, the IC50 at MAP4K5, on MAPK8, on MASTL, on PLK1, on PRKAA1 and at PRKD3 was at least 20 µM throughout. For the same compound, the IC50 at PRKDC, at RIPK2 and at SRC was at least 20 µM each time.

The IC50 is the midpoint of a concentration-inhibition curve. A low value points to greater potency.
